Laboratory results from paper PMC10609904 (Pharmaceuticals, 2023).
Like-named read-outs stand apart in the source and are kept apart here.

How the values were obtained:
[1] = ABTS radical-scavenging activity assay
Procedure: (§1) The DPPH radical scavenging assay and the ABTS assay were used to assess anti-oxidant activity, as previously described in detail by Nguyen et al.. In a 96-well plate, 100 μL of samples (at various concentrations) or distilled water (blank sample) were combined with 25 μL of 0.75 mM DPPH solution (dissolved in methanol). After that, the plates were kept in complete darkness for 30 min. Subsequently, the absorbance was determined at a wavelength of 517 nm. For the ABTS radical-scavenging activity assay, test samples (at various concentrations) were mixed with pre-diluted ABTS solution (reaching an optical density of 0.7). The reaction was allowed to occur for 10 min at room temperature. The absorbance was measured at 734 nm. Ascorbic acid was used as positive control.
(§2) All chemical assays were conducted in triplicate. […] The IC50 value (half-maximal inhibitory concentration of samples) was determined via a standard equation constructed by the inhibitory activity (%) and the respective concentration of the tested sample.

[2] = DPPH radical scavenging assay
Procedure: as §1, §2

[3] = molecular target: T1, acetylcholinesterase (AChE) (Electrophorus electricus, UniProt O42275); assay: biochemical
T1 construct: purchased Sigma Aldrich
T1 sequence (O42275 24-633): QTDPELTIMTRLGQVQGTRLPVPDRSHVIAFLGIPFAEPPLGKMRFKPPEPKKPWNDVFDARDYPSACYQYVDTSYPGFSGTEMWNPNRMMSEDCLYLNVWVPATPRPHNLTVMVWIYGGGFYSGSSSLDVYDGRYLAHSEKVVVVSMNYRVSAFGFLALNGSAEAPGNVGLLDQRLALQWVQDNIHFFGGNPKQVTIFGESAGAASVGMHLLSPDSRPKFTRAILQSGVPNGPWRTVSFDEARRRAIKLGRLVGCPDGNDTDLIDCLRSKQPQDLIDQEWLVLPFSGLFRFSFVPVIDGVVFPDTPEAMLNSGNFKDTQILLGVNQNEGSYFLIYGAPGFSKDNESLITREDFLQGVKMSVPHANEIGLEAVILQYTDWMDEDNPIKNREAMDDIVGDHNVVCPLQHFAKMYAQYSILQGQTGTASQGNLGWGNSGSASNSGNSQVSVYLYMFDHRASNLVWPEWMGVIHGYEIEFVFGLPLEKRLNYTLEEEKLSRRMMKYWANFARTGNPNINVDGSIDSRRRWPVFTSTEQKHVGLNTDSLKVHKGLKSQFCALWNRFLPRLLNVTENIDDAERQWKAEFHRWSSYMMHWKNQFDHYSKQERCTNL
Procedure: The anti-Alzheimer impact was assessed in vitro utilizing the key enzyme acetylcholinesterase inhibition assay, as described in an earlier study. In detail, 120 μL of phosphate buffer, 60 μL of tested sample, and 60 μL of enzymatic solution (0.5 mM) were mixed and incubated for fifteen minutes at 25 °C in a 96-well plate. This was followed by the addition of 30 μL of 5,5′-dithiobis-2-nitrobenzoic acid (0.003 M) and 40 μL of acetylthiocholine iodide (0.002 M). The reaction mixture was kept in an incubator at 25 °C for ten minutes. The absorbance of the solution was measured at 415 nm. Berberine chloride was used as a standard inhibitor of the enzyme.
as §2

## O=C1O[C@H]([C@@H](O)CO)C(O)=C1O [Vitamin C, Ascorbic acid]
[1]
  ABTS IC50: 23.0 ± 0.4 µg/mL
[2]
  DPPH IC50: 38.4 ± 0.5 µg/mL

## COc1cc(O)c2c(c1)oc(=O)c1c3cc(O)c(O)cc3oc21 [compound 1, Wedelolactone]
[3]; read-out: AChE IC50 (converted)
  IC50: 195 µM

## O=C(O)c1ccccc1O [compound 8, Salicylic acid]
[3]
  IC50: 405 µM

## COc1ccc2cc3[n+](cc2c1OC)CCc1cc2c(cc1-3)OCO2 [compound 37, Berberine chloride]
[3]
  IC50: 895 µM
